Data set [1] deals with ERK1/2 phosphorylation. Put plainly: ERK1/2 phosphorylation in rat hippocampal slices (Western blot). Type of data set: cell-based. The settings on record: 10^−8M, 30 min. As for the experimental part:
The potential of IRAP/AT4 ligands to activate MAPK or CREB was initially investigated on rat hippocampal slices. Rats were killed by decapitation and the hippocampi removed, four hundred μm thick slices cut and incubated in aCSF. […] Slices were then lysed in 200 μl of ice-cold lysis buffer (10 mM Tris-HCl pH 7.5, 50 mM NaCl, 1% triton X-100, 30 mM sodium pyrophosphate, 50 mM NaF, 5 μM ZnCl2, 0.1 mM sodium orthovanadate, 1 mM DTT, 5 nM okadaic acid, 1×Boehringer Protease inhibitor cocktail) and centrifuged at full speed. The lysates were then heated at 95° C. for 10 min in 6×SDS loading buffer and the proteins (30 μg per lane) resolved on 7.5% SDS-poylacrylamide gels. After transfer of proteins to PVDF membranes, blots were probed overnight at 4° C. with anti phospho-p44/42 MAP kinase (Thr202/Tyr204) antibody and detected by chemiluminescence using ECL blotting detection reagents and a Fuji LAS-1000.

For data set [2], the system named is rats. The settings on record: cited from earlier work.
Data set [3] has as its system ERK1/2 phosphorylation.
Protocol: The ability of AT4 ligands to stimiuladte MAPK phosphorylation directly was investigated in HEK293 cells transfected with human IRAP. HEK293 cells were transfected with pCI-IRAP or with empty vector, plated on to 12-well plates at a density of 60,000 cells/well and grown in complete medium containing 0.2% fetal calf serum. […] The proteins were then transferred on to nitrocellulose membranes and incubated with phospho-MAPK (p44/42) antibodies and visualised with HRP-conjugated secondary antibody, using the ECL-plus western blot detection system.
The test system of another data set is 3T3L1 cells. Put plainly: 2-deoxyglucose uptake in differentiated 3T3L1 adipocytes. The settings on record: for basal glucose uptake: no insulin, untreated 3.3±0.67.
The subject of data set [4] is rats. The settings on record: intracerebroventricular dose 1 nmol; cited from earlier work.
The test system of the next data set is SK-N-MC cells. Put plainly: [^3H]-thymidine uptake in SK-N-MC cells. The format is cell-based. To be noted: Ang IV 10^−10-10^−7 M; LVVYPWTQRF 10^−10-10^−6 M. The method, then: (§1) NG108-15 and SK-N-MC cells were cultured in DMEM supplemented with 10% heat-inactivated FCS, 2% HAT supplement, and 100 U/ml penicillin/streptomycin. Cells were routinely used between passages 20 and 30.
(§2) Cells were plated at a density of 3×10^4 cells/well in 24 well Falcon plates that had been coated with 0.1 mg/ml poly-L-lysine hydrobromide. The cells were allowed to adhere overnight, and then serum deprived for 48 h before being treated with […] (SEQ ID NO:2) and/or Ang IV (10^−10 to 10^−6 M) for 24 h in medium with or without serum. Five hours before the end of the experiment 1 μCi of ^3H-thymidine was added to each well. At the completion of the incubation, cells were washed twice with 1 ml of PBS at 4° C., followed by 5% trichloroacetic acid at 4° C. for 30 min, which was aspirated before solubilizing the cells in 1 ml 0.25 M NaOH and 0.1% SDS for 30 min at 37° C. Samples were then collected into 5 ml of Ready Value scintillation fluid and ^3H measured in a liquid scintillation counter.

In another data set the test system is rat hippocampal slices. Put plainly: Potassium-evoked ^3H-choline release from rat hippocampal slices. Type of data set: cell-based. To be noted: at 10^−7M. The method, then:
To determine the effect of IRAP inhibitors an acetylcholine release for rat hippocampal slices in vitro, rats were anaesthetized with sodium pentobarbitone, decapitated and the brain rapidly extracted and put on ice. The two sides of the hippocampus were then dissected, and stored in Krebs buffer on ice. The tissues were sectioned into 400 μm slices using a McI1wain slicer, and incubated with 10 μM of ^3H-choline in Krebs buffer for 20 min at 37° C. Following the incubation, the sections were transferred to Brandel superfusion chambers filled with carbogenated Krebs buffer, pH7.0 containing […] hemicholinium HC-3 to prevent choline reuptake. The slices were washed for 60 min at 37° C. with Krebs buffer at a flow rate of 500 μl/min. Superfusate samples were collected at 5 min intervals for the duration of the experiment. After a stable baseline was established, the hippocampal slices were depolarised by the addition of 30 mM KCl to the Krebs buffer and infused for 4 min (stimulation period S1). The tissue was then allowed to recover for 25 min before the next stimulation period (S2). To test the effect of […] […] Fractional ^3H-choline release, expressed as a ratio of S2/S1, was then calculated for each of the different peptides at the different doses.

The test system of the next data set is NG108-15 cells. In words: ^3H-thymidine incorporation in NG108-15 cells. Type of data set: cell-based, rat-mouse hybrid. As for the experimental part:
as §1, §2
In general terms: Uptake of a labelled nucleoside into DNA is a usual measure of proliferation.

The conditions of data set [5]: conditions similar to the DNA synthesis experiments.
Data set [6] has as its target T1, human insulin-regulated aminopeptidase (IRAP) / angiotensin IV (AT4) receptor (human, UniProt Q9UIQ6 1-1025).
T1 construct: whole, on cells; also called AT4 receptor/IRAP; hIRAP
In words: radioligand displacement of 125I-Nle-Ang IV.

Data set [7] concerns the target T1, human insulin-regulated aminopeptidase …. Put plainly: competitive inhibition of L-leucine-β-naphthylamide cleavage by solubilised membranes of IRAP-transfected HEK 293 cells; Ki from IC50=Ki(1+[S]/Km).
For data set [8] the target is unchanged. In words: cell-based or functional assay.
The target is the same in data set [9]. In words: competition with 125I-Nle1 Ang IV on IRAP-transfected cells.

The values below come from US20050020519A1, “Modulation of insulin-regulated aminopeptidase (irap)/angiotensin iv (at4) receptor activity” (priority 2001, published 2005).

Read-outs that look alike come from different tables or passages of the source. Where a SMILES comes first, the peptide text is derived from it.

T1 sequence (Q9UIQ6 whole entry): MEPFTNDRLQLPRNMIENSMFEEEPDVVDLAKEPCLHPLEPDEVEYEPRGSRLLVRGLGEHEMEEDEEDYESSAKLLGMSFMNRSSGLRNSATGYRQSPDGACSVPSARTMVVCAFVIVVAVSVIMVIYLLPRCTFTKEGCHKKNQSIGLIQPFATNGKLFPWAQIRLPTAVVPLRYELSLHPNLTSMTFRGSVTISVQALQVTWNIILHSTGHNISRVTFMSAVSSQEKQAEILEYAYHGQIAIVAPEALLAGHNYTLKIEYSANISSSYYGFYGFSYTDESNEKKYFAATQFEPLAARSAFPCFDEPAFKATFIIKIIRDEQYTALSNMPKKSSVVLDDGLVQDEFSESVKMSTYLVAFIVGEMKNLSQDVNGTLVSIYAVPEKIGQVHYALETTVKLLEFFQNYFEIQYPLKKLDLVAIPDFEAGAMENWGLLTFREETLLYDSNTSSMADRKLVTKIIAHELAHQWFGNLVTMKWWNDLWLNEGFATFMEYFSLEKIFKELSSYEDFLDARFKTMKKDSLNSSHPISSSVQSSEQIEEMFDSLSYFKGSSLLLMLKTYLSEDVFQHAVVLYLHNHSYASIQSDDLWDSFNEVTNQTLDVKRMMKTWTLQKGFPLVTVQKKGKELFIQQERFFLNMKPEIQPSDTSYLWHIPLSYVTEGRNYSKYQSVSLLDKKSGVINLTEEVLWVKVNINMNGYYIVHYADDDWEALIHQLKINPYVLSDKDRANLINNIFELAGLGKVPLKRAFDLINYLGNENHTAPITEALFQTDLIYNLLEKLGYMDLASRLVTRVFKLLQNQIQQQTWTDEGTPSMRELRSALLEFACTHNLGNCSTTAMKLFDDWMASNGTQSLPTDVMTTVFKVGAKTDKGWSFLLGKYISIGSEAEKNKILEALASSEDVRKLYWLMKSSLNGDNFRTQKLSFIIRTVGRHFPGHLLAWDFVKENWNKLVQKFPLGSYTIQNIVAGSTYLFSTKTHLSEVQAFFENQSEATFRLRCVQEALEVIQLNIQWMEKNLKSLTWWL
Protocol for 3T3L1 cells: The effect of IRAP inhibitors on the regulation of glucose uptake was determined in 3T3L1 cells. 3T3L1 fibroblasts were differentiated by the addition of DMEM containing 5% fetal calf serum, 4 μg/ml insulin, 0.25 mM dexamethasone and 0.5 mM 3-isobutyl-1-methyl-xanthine. […] The reaction was stopped after 10 min by washing the cells in PBS. The cells were then solubilized in 0.5 N NaOH and counted.

Consider `CCCC[C@H](N)C(=O)N[C@@H](Cc1ccc(O)cc1)C(=O)N[C@H](C(=O)N[C@@H](Cc1c[nH]cn1)C(=O)N1CCC[C@H]1C(=O)N[C@@H](Cc1ccccc1)C(=O)O)[C@@H](C)CC` [Nle^1-Ang IV, Nle′-YIHPF] (HELM PEPTIDE1{[Nle].Y.I.H.P.F}$$$$V2.0; N-terminus and C-terminus assumed), for which the ERK1/2 phosphorylation entry in the data set on ERK1/2 phosphorylation [1] is recorded as “induced phosphorylation of ERK1/2”; in the data set with ERK1/2 phosphorylation [3], “induced the phosphorylation of ERK1/2”. For the same molecule, the “performance in the swim maze task” value in the data set on rats [2] (chronic infusion (6 days), 0.1 to 0.5 nmol/h, lateral ventricle) was “enhanced performance”. The “memory deficits induced by scopolamine” value in the data set with rats [2] (given acutely into the lateral ventricles) is recorded as “reversed the memory deficits”. For the same molecule, the insulin-stimulated glucose uptake is 18.3 ± 2.39 pmol/min/well in the data set with 3T3L1 cells (10^−6 M peptide with 0.7 nM insulin), 23.02 ± 1.52 pmol/min/well in the data set on 3T3L1 cells (10^−6 M peptide with 70 nM insulin), 12.2 ± 2.29 pmol/min/well in the data set on 3T3L1 cells (10^−7 M peptide with 0.7 nM insulin) and 22.99 ± 2.8 pmol/min/well in the data set on 3T3L1 cells (10^−7 M peptide with 70 nM insulin). The basal glucose uptake is 7.6±1.21 pmol/min/well in the data set with 3T3L1 cells (10^−6 M) and 7.2±1.79 pmol/min/well in the data set on 3T3L1 cells (10^−7 M). Moreover, the “increase of basal glucose uptake” value with 3T3L1 cells (both concentrations (10^−7 and 10^−6 M)) was “two-fold”.

In the case of `CC[C@H](C)[C@H](NC(=O)[C@H](Cc1ccc(O)cc1)NC(=O)[C@@H](N)C(C)C)C(=O)N[C@@H](Cc1cnc[nH]1)C(=O)N1CCC[C@H]1C(=O)N[C@@H](Cc1ccccc1)C(=O)O` [Ang IV, VYIHPF], the “latency in re-entering the dark chamber after an aversive stimulus” value in the data set with rats [4] was “increased the latency”. Also, the “increase of [^3H]-thymidine uptake” value in the data set on SK-N-MC cells is “up to 72 % above control levels”. Also, the “maximum effect on potassium-evoked ^3H-choline release” value in the data set with rat hippocampal slices is given as 150 % of control. Further, in the data set on NG108-15 cells (10^−10 to 10^−6 M, alone), the “stimulation of DNA synthesis” value is “did not stimulate DNA synthesis”. The “effect on LVVYPWTQRF-stimulated ^3H-thymidine incorporation” value in the data set with NG108-15 cells (concomitant 10^−6 M Ang IV) is reported as “completely abolished”. For the same molecule, the “degradation of the peptide” value in [5] is “some degradation”.

B1: LVV-hemorphin 7 (LVVYPWTQRF) (peptide)
peptide: LVVYPWTQRF
notes: Globin fragment purified from sheep cerebral cortex; synthetic peptide used in the assays; also called LVV-H7; LV-H7
The term IC50 denotes the midpoint of a concentration-inhibition curve. Low readings indicate higher potency, high ones lower potency. The Ki is a measure of affinity in units of concentration, obtained from inhibition or displacement. The molecule B1 returned an IC50 in data set [6] of 0.14 µM. Besides, the Ki in [7] turned out to be 0.845 µM. Moreover, in data set [8], the “IC50 inhibition leucine β-naphthylamide” value was determined as 1.5 µM.

B2: KYLPGPLQ (complexin II fragment) (peptide)
peptide: KYLPGPLQ
notes: Purified from blood-free sheep cerebral cortex; synthetic peptide used in the assays; also called complexin fragment
As to B2, in [9], the binding result was “binds”.
